Assay results reported in patent US20120029187A1, “HALOALKYLSULFONANILIDE DERIVATIVE” (Nissan Chemical Industries, Ltd., priority 2009, published 2012).

Assays:
Format in all cases: in vivo
ducksalad [1] = test: Test Example 2: herbicidal effects during the vegetation period under submerged conditions; conditions: treatment during the vegetation period under submerged conditions; dose 2.52 g/a
Method in brief: (§1)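 Barnyardgrass, bulrush and ducksalad were co-sown in alluvial soil flooded to 4 cm and grown in a greenhouse at 25 to 30° C. At the 1- or 2-leaf stage, water-diluted emulsifiable concentrates went onto the water surface at set doses (g/a). Herbicidal effect was scored three weeks later on a graded scale.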

barnyardgrass [2] = test: as above; conditions: treatment during the vegetation period under submerged conditions; dose 2.52 g/a
Method in brief: as §1

bulrush [3] = test: as above; conditions: treatment during the vegetation period under submerged conditions; dose 2.52 g/a
Method in brief: as §1

velvetleaf [4] = test: Test Example 4: herbicidal effect in foliage treatment; conditions: dose 3.2 g/a, three weeks after the application
Method in brief: (§2)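 Herbicidal effect was rated on an evaluation scale three weeks after treatment. Plants had been raised 14 days at 25 to 30° C in sterilized diluvial soil, then received foliar sprays of emulsifiable concentrate diluted in water at predetermined doses expressed as g per are.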

redroot pigweed [5] = test: as above; conditions: dose 3.2 g/a, three weeks after the application
Method in brief: as §2

beadstraw [6] = test: as above; conditions: dose 3.2 g/a, three weeks after the application
Method in brief: as §2

wild oat [7] = test: as above; conditions: dose 3.2 g/a, three weeks after the application
Method in brief: as §2

posumbu knotweed [8] = test: as above; conditions: dose 3.2 g/a, three weeks after the application
Method in brief: as §2

water foxtail [9] = test: as above; conditions: dose 3.2 g/a, three weeks after the application
Method in brief: as §2

common chickweed [10] = test: as above; conditions: dose 3.2 g/a, three weeks after the application
Method in brief: as §2

giant foxtail [11] = test: as above; conditions: dose 3.2 g/a, three weeks after the application
Method in brief: as §2

barnyardgrass [12] = test: as above; conditions: dose 3.2 g/a, three weeks after the application
Method in brief: as §2

common ragweed [13] = test: as above; conditions: dose 3.2 g/a, three weeks after the application
Method in brief: as §2

common lambsquater [14] = test: as above; conditions: dose 3.2 g/a, three weeks after the application
Method in brief: as §2

large crabgrass [15] = test: as above; conditions: dose 3.2 g/a, three weeks after the application
Method in brief: as §2

Italian ryegrass [16] = test: as above; conditions: dose 3.2 g/a, three weeks after the application
Method in brief: as §2

transplanted rice = test: Test Example 1: preemergence treatment under submerged conditions, effect on crop; conditions: dose 2.52 g/a
Method in brief: (§3)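 Submerged conditions, 4 cm water over alluvial soil. Weeds sown and 2.5-leaf rice transplanted; compound applied preemergence to water surface, doses in g per are. Greenhouse, 25 to 30° C., three weeks, then 0–5 mortality rating.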

ducksalad [17] = test: Test Example 1: herbicidal effects in preemergence treatment under submerged conditions; conditions: dose 2.52 g/a
Method in brief: as §3

barnyardgrass [18] = test: as above; conditions: dose 2.52 g/a
Method in brief: as §3

bulrush [19] = test: as above; conditions: dose 2.52 g/a
Method in brief: as §3

velvetleaf [20] = test: Test Example 3: herbicidal effects in soil treatment; conditions: dose 3.2 g/a
Method in brief: (§4)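 Seeds were sown in sterilized diluvial soil and covered with about 1.5 cm of soil. Compounds, formulated as emulsifiable concentrates and diluted with water, were sprayed evenly over the soil surface at set doses in g/a. Herbicidal effect was scored on a rating scale three weeks later.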

redroot pigweed [21] = test: as above; conditions: dose 3.2 g/a
Method in brief: as §4

beadstraw [22] = test: as above; conditions: dose 3.2 g/a
Method in brief: as §4

wild oat [23] = test: as above; conditions: dose 3.2 g/a
Method in brief: as §4

posumbu knotweed [24] = test: as above; conditions: dose 3.2 g/a
Method in brief: as §4

water foxtail [25] = test: as above; conditions: dose 3.2 g/a
Method in brief: as §4

common chickweed [26] = test: as above; conditions: dose 3.2 g/a
Method in brief: as §4

giant foxtail [27] = test: as above; conditions: dose 3.2 g/a
Method in brief: as §4

barnyardgrass [28] = test: as above; conditions: dose 3.2 g/a
Method in brief: as §4

common ragweed [29] = test: as above; conditions: dose 3.2 g/a
Method in brief: as §4

common lambsquater [30] = test: as above; conditions: dose 3.2 g/a
Method in brief: as §4

large crabgrass [31] = test: as above; conditions: dose 3.2 g/a
Method in brief: as §4

Italian ryegrass [32] = test: as above; conditions: dose 3.2 g/a
Method in brief: as §4

Compound | C: ducksalad, herbicidal effect (evaluation scale 0-5) (ducksalad [1]) | A: barnyardgrass, herbicidal effect (evaluation scale 0-5) (barnyardgrass [2]) | B: bulrush, herbicidal effect (evaluation scale 0-5) (bulrush [3]) | I: velvetleaf, herbicidal effect (velvetleaf [4]) | K: redroot pigweed, herbicidal effect (redroot pigweed [5]) | O: beadstraw, herbicidal effect (beadstraw [6]) | F: wild oat, herbicidal effect (wild oat [7]) | M: posumbu knotweed, herbicidal effect (posumbu knotweed [8]) | G: water foxtail, herbicidal effect (water foxtail [9]) | N: common chickweed, herbicidal effect (common chickweed [10]) | E: giant foxtail, herbicidal effect (giant foxtail [11]) | A: barnyardgrass, herbicidal effect (barnyardgrass [12]) | J: common ragweed, herbicidal effect (common ragweed [13]) | L: common lambsquater, herbicidal effect (common lambsquater [14]) | D: large crabgrass, herbicidal effect (large crabgrass [15]) | H: Italian ryegrass, herbicidal effect (Italian ryegrass [16]) | a: transplanted rice, effect on crop (evaluation scale 0-5) (transplanted rice) | C: ducksalad, herbicidal effect (evaluation scale 0-5) (ducksalad [17]) | A: barnyardgrass, herbicidal effect (evaluation scale 0-5) (barnyardgrass [18]) | B: bulrush, herbicidal effect (evaluation scale 0-5) (bulrush [19]) | further results
CN1COCN(Cc2ccccc2NS(=O)(=O)C(F)(F)F)C1=O [IV-1] | 4 (mortality of at least 70% and less than 90%) | 4 (mortality of at least 70% and less than 90%) | 5 (mortality of 90% or above (nearly complete death)) | 5 (mortality of 90% or above (nearly complete death)) | 0 (mortality of less than 5% (almost ineffective)) | 3 (mortality of at least 40% and less than 70%) | 0 (mortality of less than 5% (almost ineffective)) | 0 (mortality of less than 5% (almost ineffective)) | 5 (mortality of 90% or above (nearly complete death)) | 1 (mortality of at least 5% and less than 20%) | 3 (mortality of at least 40% and less than 70%) | 4 (mortality of at least 70% and less than 90%) | 1 (mortality of at least 5% and less than 20%) | 0 (mortality of less than 5% (almost ineffective)) | 4 (mortality of at least 70% and less than 90%) | 3 (mortality of at least 40% and less than 70%) | 0 (mortality of less than 5% (almost ineffective)) | 4 (mortality of at least 70% and less than 90%) | 5 (mortality of 90% or above (nearly complete death)) | 5 (mortality of 90% or above (nearly complete death)) | herbicidal effect, I: velvetleaf (velvetleaf [20]): 3 (mortality of at least 40% and less than 70%); herbicidal effect, K: redroot pigweed (redroot pigweed [21]): 0 (mortality of less than 5% (almost ineffective)); herbicidal effect, O: beadstraw (beadstraw [22]): 0 (mortality of less than 5% (almost ineffective)); herbicidal effect, F: wild oat (wild oat [23]): 0 (mortality of less than 5% (almost ineffective)); herbicidal effect, M: posumbu knotweed (posumbu knotweed [24]): 0 (mortality of less than 5% (almost ineffective)); herbicidal effect, G: water foxtail (water foxtail [25]): 5 (mortality of 90% or above (nearly complete death)); herbicidal effect, N: common chickweed (common chickweed [26]): 0 (mortality of less than 5% (almost ineffective)); herbicidal effect, E: giant foxtail (giant foxtail [27]): 3 (mortality of at least 40% and less than 70%); herbicidal effect, A: barnyardgrass (barnyardgrass [28]): 5 (mortality of 90% or above (nearly complete death)); herbicidal effect, J: common ragweed (common ragweed [29]): 2 (mortality of at least 20% and less than 40%); herbicidal effect, L: common lambsquater (common lambsquater [30]): 0 (mortality of less than 5% (almost ineffective)); herbicidal effect, D: large crabgrass (large crabgrass [31]): 4 (mortality of at least 70% and less than 90%); herbicidal effect, H: Italian ryegrass (Italian ryegrass [32]): 0 (mortality of less than 5% (almost ineffective))
CN1COCN(Cc2ccccc2N(C(=O)OCCCl)S(=O)(=O)C(F)(F)F)C1=O [IV-3] | 4 (mortality of at least 70% and less than 90%) | 5 (mortality of 90% or above (nearly complete death)) | 5 (mortality of 90% or above (nearly complete death)) | 3 (mortality of at least 40% and less than 70%) | 0 (mortality of less than 5% (almost ineffective)) | 0 (mortality of less than 5% (almost ineffective)) | 0 (mortality of less than 5% (almost ineffective)) | 0 (mortality of less than 5% (almost ineffective)) | 5 (mortality of 90% or above (nearly complete death)) | 5 (mortality of 90% or above (nearly complete death)) | 3 (mortality of at least 40% and less than 70%) | 4 (mortality of at least 70% and less than 90%) | 1 (mortality of at least 5% and less than 20%) | 0 (mortality of less than 5% (almost ineffective)) | 4 (mortality of at least 70% and less than 90%) | 1 (mortality of at least 5% and less than 20%) | 0 (mortality of less than 5% (almost ineffective)) | 5 (mortality of 90% or above (nearly complete death)) | 5 (mortality of 90% or above (nearly complete death)) | 5 (mortality of 90% or above (nearly complete death)) | herbicidal effect, I: velvetleaf (velvetleaf [20]): 5 (mortality of 90% or above (nearly complete death)); herbicidal effect, K: redroot pigweed (redroot pigweed [21]): 0 (mortality of less than 5% (almost ineffective)); herbicidal effect, O: beadstraw (beadstraw [22]): 0 (mortality of less than 5% (almost ineffective)); herbicidal effect, F: wild oat (wild oat [23]): 0 (mortality of less than 5% (almost ineffective)); herbicidal effect, M: posumbu knotweed (posumbu knotweed [24]): 0 (mortality of less than 5% (almost ineffective)); herbicidal effect, G: water foxtail (water foxtail [25]): 5 (mortality of 90% or above (nearly complete death)); herbicidal effect, N: common chickweed (common chickweed [26]): 0 (mortality of less than 5% (almost ineffective)); herbicidal effect, E: giant foxtail (giant foxtail [27]): 3 (mortality of at least 40% and less than 70%); herbicidal effect, A: barnyardgrass (barnyardgrass [28]): 5 (mortality of 90% or above (nearly complete death)); herbicidal effect, J: common ragweed (common ragweed [29]): 0 (mortality of less than 5% (almost ineffective)); herbicidal effect, L: common lambsquater (common lambsquater [30]): 0 (mortality of less than 5% (almost ineffective)); herbicidal effect, D: large crabgrass (large crabgrass [31]): 4 (mortality of at least 70% and less than 90%); herbicidal effect, H: Italian ryegrass (Italian ryegrass [32]): 0 (mortality of less than 5% (almost ineffective))
